Assay results as given in patent US8426447B2, “Spiro-tricyclic ring compounds as beta-secretase modulators and methods of use” (Amgen Inc., priority 2008, dated 2013).
Blank lines part the entries; values can stand above or below the compound they belong to.

How the values were obtained:
[1] = target: T1, BACE1 (Homo sapiens, UniProt P56817); test: In Vitro Enzymatic BACE FRET (Fluorescence Resonance Energy Transfer) Assay; type: biochemical; conditions: read-out: BACE1 FRET assay
Outline: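 One-hour incubation initiated by 50 nM quenched FRET peptide spanning the BACE cleavage site, in 0.05 M acetate (pH 4.2), 100 uM genapol, 10% DMSO final. Tris addition neutralizes pH to end the reaction before fluorescence measurement.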

[2] = target: T1, BACE1; test: In Vitro BACE Cell-based Assay (HEK cell assay): Aβ40 in conditioned medium of cells stably expressing Amyloid Precursor Protein, sandwich ELISA; conditions: read-out: HEK cell assay
Outline: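 APP-expressing cells were cultured 24 h in DMEM/10% FBS, then treated 24 h with compounds in 10-point dose response (top 100 μM or 10 μM; 0.1% DMSO final). Secreted Aβ40 was quantified by sandwich ELISA (pAb40 capture, biotinylated 6E10 detection, Europium TRF); IC50 from percent inhibition versus concentration.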

[3] = in vitro BACE FRET enzyme assay, IC50 class symbols
[4] = HEK cell-based assay, Aβ40 in conditioned medium, IC50 class symbols

T1 sequence (P56817 46-501, species assumed): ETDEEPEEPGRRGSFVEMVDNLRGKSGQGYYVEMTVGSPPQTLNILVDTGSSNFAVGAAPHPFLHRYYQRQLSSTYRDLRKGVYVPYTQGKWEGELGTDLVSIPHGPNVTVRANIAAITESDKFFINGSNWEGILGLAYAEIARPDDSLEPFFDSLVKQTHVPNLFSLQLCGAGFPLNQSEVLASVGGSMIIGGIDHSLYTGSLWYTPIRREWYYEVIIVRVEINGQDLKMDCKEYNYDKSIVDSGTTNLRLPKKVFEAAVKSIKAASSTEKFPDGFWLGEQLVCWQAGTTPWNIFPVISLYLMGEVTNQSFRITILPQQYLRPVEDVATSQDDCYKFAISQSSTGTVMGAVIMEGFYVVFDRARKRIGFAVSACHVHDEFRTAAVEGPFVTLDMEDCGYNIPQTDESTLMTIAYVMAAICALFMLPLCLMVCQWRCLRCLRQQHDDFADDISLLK

- IC50 [1]: < 0.1 µM
- IC50 [2]: 0.1 to 1 µM
SMILES: CC1(COc2ccc3c(c2)[C@@]2(COC(N)=N2)c2cc(C#CC4CC4)cnc2O3)COC1 [compound 967]

- IC50 ([1]; Table III, IC50's in uM ranges): < 0.1 µM
- IC50 ([2]; Table III, IC50's in uM ranges): < 0.1 µM
SMILES: CC(C)(O)C#Cc1ccc2c(c1)[C@]1(COC(N)=N1)c1cc(-c3cccnc3)ccc1O2 [151a]

- IC50 ([1]; Table IV, class symbols): > 5 µM
- IC50 ([2]; Table IV, class symbols): > 5 µM
SMILES: NC1=N[C@@]2(CO1)c1cc(Br)ccc1Oc1ccc(Cl)nc12 [compound 855]

- IC50 [1, 3]: < 0.1 µM
- IC50 [2, 4]: < 0.1 µM
SMILES: CC(C)(F)COc1cnc2c(c1)[C@]1(COC(N)=N1)c1cc(C#CC3CC3)ccc1O2 [compound 382]

- IC50 ([1]; Table III, IC50's in uM ranges): 0.1 to 1 µM
- IC50 ([2]; Table III, IC50's in uM ranges): 1 to 5 µM
SMILES: NC1=N[C@@]2(CO1)c1cc(C#CC3CC3)ccc1Oc1ccc(Oc3ccccn3)cc12 [compound 211]

- IC50 ([1]; Table IV, class symbols): < 0.1 µM
- IC50 ([2]; Table IV, class symbols): < 0.1 µM
SMILES: COc1ncccc1-c1ccc2c(c1)[C@@]1(COC(N)=N1)c1cc(C#CC(C)(C)OC)cnc1O2 [compound 806]

- IC50 [1]: < 0.1 µM
- IC50 ([2]; HEK cells): < 0.1 µM
SMILES: NC1=N[C@@]2(CO1)c1cc(-c3cccc(F)c3)ccc1Oc1cnc(C3=CCOCC3)cc12 [compound 485]

- IC50 ([1]; Table II): 0.1 to 1 µM
- IC50 ([2]; Table II, Aβ40, 24 h incubation): > 5 µM
SMILES: NC1=N[C@@]2(CS1)c1cc(Cl)ccc1Oc1ccc(-c3cncnc3)cc12 [Example 39, (4R)-2′-chloro-7′-(5-pyrimidinyl)spiro[1,3-thiazole-4,9′-xanthen]-2-amine]

- IC50 ([1]; Table 1): > 5 µM
- IC50 ([2]; Table 1, Aβ40, 24 h incubation): > 5 µM
SMILES: Cc1ccc2c(c1)Oc1ccc(Br)cc1C21COC(N)=N1 (stereo not drawn) [Example 37, 2′-bromo-6′-methylspiro[1,3-oxazole-4,9′-xanthen]-2-amine]

- IC50 ([1]; Table III, IC50's in uM ranges): < 0.1 µM
- IC50 ([2]; Table III, IC50's in uM ranges): 0.1 to 1 µM
SMILES: CC(C)(C)COc1ccc2c(c1)[C@@]1(COC(N)=N1)c1cc(-c3ccc(C#N)cc3)ccc1O2 [Example 128, (R)-4-(2-amino-2′-(neopentyloxy)-5H-spiro[oxazole-4,9′-xanthene]-7′-yl)benzonitrile]

- IC50 [1]: < 0.1 µM
- IC50 [2]: < 0.1 µM
SMILES: CC(C)(C)/C=C/c1ccc2c(c1)[C@]1(COC(N)=N1)c1cc(-c3cncnc3)ccc1O2 [compound 963]

- IC50 [1]: 0.1 to 1 µM
- IC50 [2]: 1 to 5 µM
SMILES: CC(C)(C)COc1ccc2c(c1)[C@]1(COC(N)=N1)c1cc(C#N)ccc1O2 [compound 959]

- IC50 [1]: < 0.1 µM
- IC50 [2]: 0.1 to 1 µM
SMILES: CC(C)(C)COc1ccc2c(c1)[C@]1(COC(N)=N1)c1cc(C3CC3(C)C)ccc1O2 (stereo partly drawn) [compound 754]

- IC50 ([1]; Table IV, class symbols): < 0.1 µM
- IC50 ([2]; Table IV, class symbols): < 0.1 µM
SMILES: NC1=N[C@@]2(CO1)c1cc(-c3cccnc3)ccc1Oc1ccc(-c3cncs3)cc12 [compound 660]

- IC50 ([1]; Table IV, class symbols): 0.1 to 1 µM
- IC50 ([2]; Table IV, class symbols): 1 to 5 µM
SMILES: NC1=N[C@@]2(CO1)c1cc(Br)ccc1Oc1ccc(-c3cccnc3)cc12 [compound 876]

- IC50 [1]: < 0.1 µM
- IC50 [2]: < 0.1 µM
SMILES: COC(=O)c1ccc(-c2ccc3c(c2)[C@]2(COC(N)=N2)c2cc(-c4cccnc4)ccc2O3)s1 [compound 722]

- IC50 ([1]; Table IV, class symbols): < 0.1 µM
- IC50 ([2]; Table IV, class symbols): < 0.1 µM
SMILES: Cc1c(OCC(C)(C)O)ccc2c1[C@]1(COC(N)=N1)c1cc(-c3cccnc3)ccc1O2 [compound 907]

- IC50 [1]: < 0.1 µM
- IC50 [2]: < 0.1 µM
SMILES: CC(C)(C)COc1ccc2c(c1)[C@@]1(COC(N)=N1)c1cc(-c3ccc(OCC(F)(F)F)nc3)cnc1O2 [compound 740]

- IC50 [1, 3]: > 5 µM
- IC50 [2, 4]: 1 to 5 µM
SMILES: COc1ccc2c(c1)[C@]1(COC(N)=N1)c1cc(Br)cc(F)c1O2 [compound 377]

- IC50 ([1]; Table 1): 1 to 5 µM
- IC50 ([2]; Table 1, Aβ40, 24 h incubation): > 5 µM
SMILES: COc1ccc(F)c(-c2ccc3c(c2)C2(COC(N)=N2)c2cc(OC)ccc2O3)c1 (stereo not drawn) [Example 15, 2′-(2-fluoro-5-methoxyphenyl)-7′-methoxyspiro[1,3-oxazole-4,9′-xanthen]-2-amine]

- IC50 ([1]; Table IV, class symbols): < 0.1 µM
- IC50 ([2]; Table IV, class symbols): < 0.1 µM
SMILES: NC1=N[C@@]2(CO1)c1cc(-c3cncnc3)ccc1Oc1ncc(C3=CCOCC3)cc12 [compound 805]

- IC50 [1, 3]: < 0.1 µM
- IC50 [2, 4]: < 0.1 µM
SMILES: CCOC1CN(c2ccc3c(c2)[C@]2(COC(N)=N2)c2cc(-c4cccnc4)ccc2O3)C1 [compound 415]

- IC50 ([1]; Table IV, class symbols): 0.1 to 1 µM
- IC50 ([2]; Table IV, class symbols): 1 to 5 µM
SMILES: CC(C)(C)COc1ccc2c(c1)[C@]1(COC(N)=N1)c1cc(C(=O)NC3CCCC3)ccc1O2 [compound 874]

- IC50 ([1]; Table IV, class symbols): < 0.1 µM
- IC50 ([2]; Table IV, class symbols): < 0.1 µM
SMILES: CC(C)(C#N)COc1cc2c(cc1F)Oc1ccc(-c3cccnc3)cc1[C@@]21COC(N)=N1 [compound 547]

- IC50 ([1]; Table IV, class symbols): 0.1 to 1 µM
- IC50 ([2]; Table IV, class symbols): 0.1 to 1 µM
SMILES: CCOC(=O)/C=C/c1ccc2c(c1)[C@]1(COC(N)=N1)c1cc(-c3cncnc3)ccc1O2 [compound 825]

- IC50 ([1]; Table IV, class symbols): 0.1 to 1 µM
- IC50 ([2]; Table IV, class symbols): 1 to 5 µM
SMILES: CC(C)(C)COc1ccc2c(c1)[C@]1(COC(N)=N1)c1cc(-c3cccc4ncccc34)ccc1O2 [compound 916]

- IC50 ([1]; Table III, IC50's in uM ranges): 1 to 5 µM
- IC50 ([2]; Table III, IC50's in uM ranges): 1 to 5 µM
SMILES: CC(C)(O)COc1ccc2c(c1)[C@]1(COC(N)=N1)c1cc(Br)ccc1O2 [compound 210]
